Measurements published in ChEMBL document CHEMBL1136569, “Quinolone-based IMPDH inhibitors: introduction of basic residues on ring D and SAR of the corresponding mono, di and benzofused analogues” (Bioorg Med Chem Lett, 2003).

What was measured:
[1] = target: Inosine-5'-monophosphate dehydrogenase 2 (Homo sapiens, UniProt P12268); test: Inhibitory activity against inosine monophosphate dehydrogenase IMPDH II
CCRF-CEM = test: Inhibitory activity against proliferation of CEM cell line; type: functional, cell-based, Homo sapiens
[2] = Inhibitory activity against proliferation of peripheral blood mononuclear cells; type: functional, Homo sapiens

SMILES	IC50 [1]	IC50 (CCRF-CEM; Homo sapiens, CCRF-CEM)	IC50 (CCRF-CEM; ccrf-cem)	IC50 ([2]; Homo sapiens)	IC50 [2]
COc1cc2nc(-c3cccc(N4CCOCC4)c3)cc(O)c2cc1-c1cnco1	< 50 nM				
COc1cc2nc(-c3ccc(C)c(N4CCCC4)c3)cc(O)c2cc1-c1cnco1	15 nM	780 nM			
COc1cc2nc(-c3ccc(N4CCN(C)CC4)cc3)cc(O)c2cc1-c1cnco1	53 nM	2200 nM			
COc1c(C)c2c(c(O)c1C/C=C(\C)CCC(=O)O)C(=O)OC2 [MYCOPHENOLIC ACID]				600 nM	
COc1cc(NC(=O)Nc2cccc(CNC(=O)O[C@H]3CCOC3)c2)ccc1-c1cnco1 [MERIMEPODIB]				170 nM	
COc1cc2nc(-c3ccc(C)c(OCC4CCCO4)c3)cc(O)c2cc1-c1cnco1 (stereo not given)	< 5 nM	710 nM			
COc1cc2nc(-c3ccc4c(c3)N(C(C)=O)CCO4)cc(O)c2cc1-c1cnco1	14 nM	1300 nM			
COc1cc2nc(-c3ccc(OC)c(N4CCN(C)CC4)c3)cc(O)c2cc1-c1cnco1	140 nM	10000 nM			
COc1cc2nc(-c3ccc(C)c(N4CCN(C)CC4)c3)cc(O)c2cc1-c1cnco1	26 nM	1100 nM			
COc1cc2nc(-c3ccc(C)c(N4CCOCC4)c3)cc(O)c2cc1-c1cnco1	5 nM	650 nM			
COc1cc2nc(-c3ccc(C)c(OCCN4CCOCC4)c3)cc(O)c2cc1-c1cnco1	< 5 nM	600 nM			
COc1cc2nc(-c3ccc(N4CCOCC4)cc3)cc(O)c2cc1-c1cnco1	21 nM	1100 nM			
COc1cc2nc(-c3ccc4c(c3)C(N(C)C(=O)CN3CCOCC3)CC4)cc(O)c2cc1-c1cnco1 (stereo not given)	18 nM	1800 nM			
COc1cc2nc(-c3ccc4c(c3)C(N3CCCC3)CCO4)cc(O)c2cc1-c1cnco1 (stereo not given)	33 nM	1400 nM			
COc1cc2nc(-c3cccc(N4CCCC4)c3)cc(O)c2cc1-c1cnco1	25 nM	2700 nM			
COc1cc2nc(-c3cccc(N4CCN(C)CC4)c3)cc(O)c2cc1-c1cnco1	16 nM	1700 nM			

More lines, main results first:

IC50 [1]	IC50 (CCRF-CEM; Homo sapiens, CCRF-CEM)	IC50 (CCRF-CEM; ccrf-cem)	SMILES	IC50 ([2]; Homo sapiens)	IC50 [2]
15 nM	700 nM		COc1cc2nc(-c3ccc4c(c3)[C@@H](N(C)C)[C@H](OC)C4)cc(O)c2cc1-c1cnco1		
6 nM		290 nM	COc1cc2nc(-c3ccc4c(c3)C(N(C)C)CC4)cc(O)c2cc1-c1cnco1 (stereo in doubt; 27)		
20 nM	1100 nM		COc1cc2nc(-c3ccc4c(c3)C(N3CCOCC3)CC4)cc(O)c2cc1-c1cnco1 (stereo not given)		
15 nM	370 nM		COc1cc2nc(-c3ccc4c(c3)C(N(C)C)CCC4)cc(O)c2cc1-c1cnco1 (stereo not given)		
11 nM			COc1cc2nc(-c3ccc4c(c3)C(OC(=O)N(C)C)CC4)cc(O)c2cc1-c1cnco1 (stereo not given)		
12 nM	1600 nM		CNC1CCc2ccc(-c3cc(O)c4cc(-c5cnco5)c(OC)cc4n3)cc21 (stereo not given)		
< 5 nM		550 nM	COc1cc2nc(-c3ccc4c(c3)C(N(C)C)CC4)cc(O)c2cc1-c1cnco1 (single isomer, unassigned; enantiomer B)		320 nM
83 nM	3400 nM		COc1cc2nc(-c3ccc4c(c3)C(O)CCC4)cc(O)c2cc1-c1cnco1 (stereo not given)		
28 nM	3100 nM		COc1cc2nc(-c3ccc4c(c3)C(O)CC4)cc(O)c2cc1-c1cnco1 (stereo not given)		
< 5 nM		270 nM	COc1cc2nc(-c3ccc4c(c3)C(N(C)C)CC4)cc(O)c2cc1-c1cnco1 (single isomer, unassigned; Enantiomer A)		120 nM
13 nM	670 nM		COc1cc2nc(-c3ccc4c(c3)C(N3CCCC3)CC4)cc(O)c2cc1-c1cnco1 (stereo not given)		
6 nM	800 nM		COc1cc2nc(-c3ccc4c(c3)C(N3CCC3)CC4)cc(O)c2cc1-c1cnco1 (stereo not given)		
55 nM	4100 nM		COc1cc2nc(-c3ccc4c(c3)CCC4N(C)C)cc(O)c2cc1-c1cnco1 (stereo not given)		
12 nM	1100 nM		COCC(=O)N(C)C1CCc2ccc(-c3cc(O)c4cc(-c5cnco5)c(OC)cc4n3)cc21 (stereo not given)		
< 10 nM	520 nM		COc1cc2nc(-c3ccc4c(c3)C(=O)CCC4)cc(O)c2cc1-c1cnco1		
18 nM	1100 nM		COc1cc2nc(-c3ccc4c(c3)C(N(C)C(C)=O)CC4)cc(O)c2cc1-c1cnco1 (stereo not given)		
68 nM	> 10000 nM		COc1cc2nc(-c3ccc4c(c3)C(N(C)C(=O)Cn3ccnc3)CC4)cc(O)c2cc1-c1cnco1 (stereo not given)		
21 nM	720 nM		COc1cc2nc(-c3ccc4c(c3)C(N(C)C)CCO4)cc(O)c2cc1-c1cnco1 (stereo not given)		
30 nM	> 10000 nM		COc1cc2nc(-c3ccc4c(c3)C([N+](C)(C)C)CC4)cc(O)c2cc1-c1cnco1 (stereo not given)		
14 nM	1100 nM		COc1cc2nc(-c3ccc4c(c3)CN(C)C4)cc(O)c2cc1-c1cnco1		
